Results on 36 compounds are retold here after US6207677A, “Piperidine derivatives having anxiolytic effect” (H. Lundbeck A/S, priority 1991, dated 2001).

Structures are written as SMILES.

This experiment has as its target sigma receptors. Description: Inhibition of 3H-DTG binding to sigma receptors in rat brain in vitro. Particulars: 2 nM 3H-DTG, rat brain without cerebellum, 25° C., 20 min. As to the method: INHIBITION OF 3H-DTG BINDING TO SIGMA RECEPTORS IN RAT BRAIN IN VITRO
By this method the inhibition by drugs of the binding of 2 nM ^3 H-DTG (1,3,di-o-tolyl guanidine) to sigma receptors in homogenates or membranes from rat brain without cerebellum is determined in vitro as modified from Weber et al. Proc. Natl. Acad. Sci. 1986, 83,8784.
Homogenate: Rats (150-250 g) are decapitated and the brains (without cerebellum) quickly removed and placed on ice, weighed and homogenized in 100 vol ice-cold (0° C.) 50 mM Tris-buffer (pH 7.7) in an ethanol rinsed glass/teflon homogenizer at 0° C. and kept on ice until use.
P2-membranes: Brains are homogenized in 10 vol 0.32 M sucrose in an ethanol rinsed glass/teflon homogenizer with 10 strokes up and down. The homogenate is centrifuged for 10 min at 900×gm at 4° C. The supernatant is decanted and centrifuged for 20 min at 50,000 gm at 4° C. The resulting pellet is resuspended in 10 vol ice-cold […] Tris-buffer (pH 7.7) and incubated for 30 min. at 37° C. The membrane suspension is then centrifuged for further 20 min. at 50,000 gm at 4° C. The pellet is resuspended in 50 vol. of ice-cold Tris-buffer and used immediately.
0.5 ml 50 mM Tris-buffer (pH 7.7), 0.25 ml displacer (6×100 μM DTG, 6× [test compound], or Tris-buffer), and 0.25 ml 6×2 nM. ^3 H-DTG are mixed into 5 ml s plastic test tubes and kept at 4° C. until use. The binding reaction is initiated by mixing 0.5 ml tissue suspension into this solution and incubate at 25° C. for 20 min. Glass fiber filters (Whatman GF/B) are placed on the filter machine which is then closed tightly. Just before filtration vacuum is applied, and the filters washed with 0.1% PEI solution from a spray bottle followed by one wash with Tris-buffer.
The binding reaction is stopped by filtration of the assay mixture at reduced pressure (750 mbar) followed by further 3 washes with 5 ml ice-cold Tris-buffer. The filters are then placed in counting vials and 4 ml scintillation solution added. The vials are counted in a Beckmann scintillation counter.
50 mM Tris-buffer pH 7.7: 7.38 g Trizma--7.7 plus distilled H2 O ad 1 liter. 100 ml 10% polyethylenimine (PEI): 100 ml dest. H2 O is added to approx. 20 g 50% PEI which is solubilized by stirring and heating. Diluted (1+99) before use. 6×2 nM ^3 H-DTG: The exact volume depends on the actual concentration of the batch, but is made as close as possible to 12 nM. The containers for the radioactive solution is rinsed in 96% ethanol before use.
^3 H-DTG was obtained from NEN Research Products, Du Pont Denmark. Specific activity 62.3 Ci/mmol.
The known sigma receptor ligands BMY 14802 and rimcazole were included in the test for comparison purposes.
`c1ccc2c(c1)COC1(CCN(CCCCc3noc4ccccc34)CC1)C2` [Compound 19c, 1-(4-(1,2-Benzisoxazol-3-yl)-1-butyl)spiro[3H-2-benzopyran-3,4'-piperidine]]: the IC50 came to 0.84 nM. That is a sub-nanomolar value.
Next, `Clc1cc2[nH]cc(CCCCN3CCC4(CC3)OCc3ccccc34)c2cc1Cl` [Compound 2z, 1'-[4-(5,6-Dichloro-3-indolyl)-1-butyl]-spiro[isobenzofuranr-1(3H) ,4'-piperidine]]: 1.5 nM; `c1ccc2c(c1)COC21CCN(CCCCC2CNc3ccccc32)CC1` (stereo not drawn) [Compound 13b, 1'-[4-(2,3-Dihydro-3-indolyl)-1-butyl]spiro[isobenzofuran-1(3H),4'-piperidine]]: 1 nM.
Next, `c1ccc2c(c1)COC1(CCN(CCCSc3csc4ccccc34)CC1)C2` [Compound 31b, 1'-[3-(Benzo[b]thiophen-3-ylthio)-1-propyl] spiro[3H-2-benzopyran-3,4'-piperidine]]: 2.6 nM.
The result for `c1ccc2c(c1)COC21CCN(CCCSc2csc3ccccc23)CC1` [Compound 31a] reads 0.23 nM; that for `Cc1ccc(-n2cc(CCCCN3CCC4(CC3)COCc3ccccc34)c3ccccc32)cc1` [Compound 9i, 1'-(4-(1-(4-Methylphenyl)-3-indolyl]-1-butyl]spiro[1H-2-benzopyran-4(3H), 4'-piperidine]], 0.62 nM.
The compound `COc1ccccc1C1CCN(CCCCc2c[nH]c3ccccc23)CC1` [Compound 2gg, 3-[4-(4-(2-Methoxyphenyl)-1-piperidinyl)-1-butyl]indol] displayed an IC50 of 3.3 nM. This IC50 is about 5.3-fold higher than that of the compound before.
Regarding `CCCN1CCC2(CC1)OCc1ccccc12` [Compound 4a, 1'-Propyl-spiro[isobenzofuran-1(3H),4'-piperidine]], the IC50 is 23 nM. Against the preceding compound, the IC50 is about 7-fold higher.
The result for `c1ccc(CCCCN2CCC3(CCc4ccccc4O3)CC2)cc1` [Compound 2h, 3,4-Dihydro-1'-(4-phenyl-1-butyl)spiro[2H-1-benzopyran-2,4'-piperidine]] reads 1.4 nM.
Next, `Cn1cc(CCCCN2CCC3(CC2)OCc2ccccc23)c2ccccc21` [Compound 2bb, 1'-[4-(1-Methyl-3-indolyl)-1-butyl]-spiro[isobenzofuran-1(3H),4'-piperidine]]: 0.3 nM.
The result for `Fc1ccc2occ(COCCN3CCC4(CC3)OCc3ccccc34)c2c1` [Compound 35b, 1'-[2-(5-Fluorobenzofuran-3-ylmethyloxy)-1-ethyl]spiro[isobenzofuran-1(3H),4'-piperidine]] reads 2.8 nM.
As for `CS(=O)(=O)n1cc(CCCCN2CCC3(CC2)OCc2ccccc23)c2ccccc21` [Compound 6a, 1'-(4-(1-Methanesulfonyl-3-indolyl)-1-butyl)spiro[isobenzofuran-1(3 H),4'-piperidine]], the IC50 turned out to be 0.05 nM. Compared with the last compound, the IC50 is about 56-fold lower.
Next, `c1ccc2c(c1)COCC21CCN(CCCCCc2c[nH]c3ccccc23)CC1` [Compound 2x, 1'-[5-(3-Indolyl)-1-pentyl]-spiro[1H-2-benzopyran-4(3H),4'-piperidine]]: 1.6 nM; `C(=CC1CCc2ccccc21)CCN1CCC2(CC1)OCc1ccccc12` (stereo not drawn) [Compound 29, 1'-[4-(1-Indanyl)-but-3-en-1-yl]-spiro[isobenzofuran-1(3H),4'-piperidine]]: 0.12 nM.
The compound `c1ccc2c(c1)NCC2CCCCN1CCC2(CC1)Oc1ccccc1O2` (stereo not drawn) [Compound 13a, 1'-[4-(2,3-Dihydro-3-indolyl)-1-butyl]spiro[1,3-benzodioxole-2,4'-piperidine]] registered an IC50 of 3.7 nM.
Next, `Fc1ccc(C2CCN(CCCCc3noc4ccccc34)CC2)cc1` [Compound 19b, 3-[4-(4-(4-Fluorophenyl)-1-piperidyl)-1-butyl]-1,2-benzisoxazole]: 0.49 nM.
Next, `Fc1ccc(-n2cc(CCCCN3CCC4(CC3)OCc3cccc(F)c34)c3ccccc32)cc1` [Compound 9g, 7-Fluoro-1'-[4-[1-(4-fluorophenyl)-3-indolyl]-1-butyl]spiro[isobenzofuran-1(3H), 4'-piperidine]]: 4.2 nM.
The result for `Cc1ccc2scc(CCCCN3CCC4(CC3)OCc3ccccc34)c2c1` [Compound 10c, 1'-(4-(5-Methylbenzo[b]thiophen-3-yl)-1-butyl)spiro[isobenzofuran-1(3H),4'-piperidine]] reads 0.35 nM.
With `Fc1ccc(-n2cc(CCCCN3C4CCC3CC3(C4)OCc4ccccc43)c3ccccc32)cc1` (stereo not drawn) [Compound 9d], the IC50 came to 26 nM.
Next, `c1ccc(OCCCN2CCC3(CC2)OCc2ccccc23)cc1` [Compound 2k, 1'-(3-Phenoxy-1-propyl)spiro[isobenzofuran-1(3H),4'-piperidine]]: 0.19 nM; `O=C1Nc2ccccc2C1CCCCN1CCC(c2ccc(F)cc2)CC1` (stereo not drawn) [Compound 2ii, 3-[4-(4-(4-Fluorophenyl)-1-piperidyl)-1-butyl]indol-2-one]: 5.8 nM; `O=C1N(CCCCN2CCC3(CC2)OCc2ccccc23)CCN1C1CCCCC1` [Compound 3a, 1'-(4-(3-Cyclohexylimidazolidin-2-on-1-yl)-1-butyl)spiro[isobenzofuran-1 (3H), 4'-piperidine]]: 2.2 nM.
For the compound `Fc1ccc(C2CCN(CCOc3cn(-c4ccc(F)cc4)c4ccc(Cl)cc34)CC2)cc1` [Compound 14b], the IC50 came out at 3.8 nM.
The result for `c1ccc(CCN2CCC3(CC2)OCc2ccccc23)cc1` [Compound 4c, 1'-(2-Phenyl-1-ethyl)-spiro[isobenzofuran-1(3h),4'-piperidine]] reads 2.9 nM.
The result for `c1ccc2c(c1)COC21CCN(CCCOc2csc3ccccc23)CC1` [Compound 34, 1'-[3-(Benzo[b]thiophen-3-yloxy)-1-propyl]spiro[isobenzofuran-1(3H),4'-piperidine]] reads 0.27 nM.
The result for `Fc1ccc(-n2cc(CCCCN3CCC4(CC3)Cc3ccccc3CO4)c3ccccc32)cc1` [Compound 5b, 1,4-Dihydro-1'-[4-[1-(4-Fluorophenyl)-3-indolyl]-1-butyl]spiro[3H-2-benzopyran-3,4'-piperidine]] reads 1.1 nM; that for `CN(C)c1ccc(C2CCN(CCCCc3cn(-c4ccc(F)cc4)c4ccccc34)CC2)cc1` [Compound 9o, 1-(4-Fluorophenyl)-3-[4-(4-(4-dimethylaminophenyl)-1-piperidyl)-1-butyl]indole], 6.7 nM; that for `CC(C)CCCCN1CCC2(CC1)OCc1ccccc12` [Compound 4b, 1'-(5-Methyl-1-hexyl)-spiro[isobenzofuran-1(3H),4'-piperidine)], 0.53 nM.
For `Fc1ccc(-n2cc(CCCCN3CCC4(CC3)SCc3ccccc34)c3ccccc32)cc1` [Compound 9c, 1'-[4-[1-(4-Fluorophenyl)-3-indolyl]-1-butyl]spiro[benzo[c]thiophene-1(3H),4'-piperidine]], the IC50 was 0.14 nM.
Regarding `c1ccc2c(c1)COC21CCN(CCCCc2cn(-c3ccsc3)c3ccccc23)CC1` [Compound 5c, 1'-(4-(1-(3-Thienyl)-3-indolyl]-1-butyl]spiro[isobenzofuran-1(3H),4'-piperidine]], the IC50 is 0.25 nM. This IC50 is about 1.8-fold higher than that of the compound before.
Next, `c1ccc(CCCCN2CCC3(CCCc4ccccc43)CC2)cc1` [Compound 2e, 3,4-Dihydro-1'-(4-phenyl-1-butyl)spiro[naphtalene-1(2H),4'-piperidine]]: 1.2 nM; `Clc1ccc(C2CCN(CCCCc3c[nH]c4ccccc34)CC2)cc1Cl` [Compound 2dd, 3-[4-(4-(3,4-Dichlorophenyl)-1-piperidyl)-1-butyl]indole]: 1.7 nM.
The compound `CCCCCCCCCCCCCCCCCCN1CCC2(CC1)OCc1ccccc12` [Compound 4g, 1'-Octadecanyl-spiro[isobenzofuran-1(3H),4'-piperidine]] showed an IC50 of 46 nM.
The result for `c1csc(-n2cc(CCCCN3CCC4(CC3)OCc3ccccc34)c3ccccc32)c1` [Compound 5d, 1'-[4-[1-(2-Thienyl)-3-indolyl]-1-butyl]spiro[isobenzofuran-1(3H),4'-piperidine]] reads 0.24 nM; that for `Cc1ccc(S(=O)(=O)n2cc(CCCCN3CCC4(CC3)OCc3ccccc34)c3ccccc32)cc1` [Compound 6b, 1'-(4-(1-p-Toluenesulfonyl-3-indolyl)-1-butyl)spiro[isobenzofuran-1(3H),4'-piperidine]], 0.17 nM; that for `Fc1ccc(C2CC3CCC(C2)N3CCCCc2noc3ccccc23)cc1` (stereo not drawn) [Compound 24], 1.9 nM.

As a reminder, the IC50 is the concentration needed to halve the response being measured. Low values mean greater potency in that assay, high ones weaker potency in that assay.
